Where two headings read alike, the source gives them in different places.
Assays:
[1] = target: Mcl-1 protein (UniProtKB Q07820) (Homo sapiens (Human), UniProt Q07820); assay: Inhibition of Mcl-1 by the fluorescence polarisation assay (Example A, Method A); assay type: binding; conditions: fluorescence polarization assay
Procedure, shortened: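 Protein (5 nM) and fluorescein-tagged peptide tracer (1 nM) incubated with 11-point compound series for 2 h at room temperature in HEPES/NaCl/Tween 20 buffer, pH 7.4, 5% DMSO. Displacement read as decrease in polarisation; IC50 fitted by 4-parameter logistic, converted to Ki (cKi or eKi).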

[2] = system: H929 multiple myeloma tumor line; assay: In vitro cytotoxicity, MTT assay (Example B, Method A); assay type: cell-based; conditions: H929 cells, 48 hours exposure, read-out: C50
Method: The cytotoxicity studies were carried out on the H929 multiple myeloma tumor line.
The cells are distributed onto microplates and exposed to the test compounds for 48 hours. The cell viability is then quantified by a colorimetric assay, the Microculture Tetrazolium Assay (Carmichael et al, Cancer Res. 1987, 47, 939-942).
The results are expressed in C50 which means concentration corresponding to […] of effect/inhibition.

Mcl-1 protein, sequence (Q07820 whole entry): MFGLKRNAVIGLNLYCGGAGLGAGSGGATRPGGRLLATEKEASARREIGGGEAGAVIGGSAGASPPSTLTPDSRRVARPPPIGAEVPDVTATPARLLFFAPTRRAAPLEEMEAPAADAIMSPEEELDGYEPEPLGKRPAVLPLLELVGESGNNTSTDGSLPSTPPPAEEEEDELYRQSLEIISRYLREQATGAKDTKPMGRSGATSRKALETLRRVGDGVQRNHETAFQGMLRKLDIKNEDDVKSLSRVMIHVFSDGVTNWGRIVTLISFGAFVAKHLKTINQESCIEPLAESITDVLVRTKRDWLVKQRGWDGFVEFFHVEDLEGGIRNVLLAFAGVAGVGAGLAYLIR

| SMILES | Ki [1] [nM] | IC50 ([2]; Homo sapiens, NCI-H929, 48 h) [nM] | IC50 [2] [nM] |
| --- | --- | --- | --- |
| C[C@@H](COc1ccnc2c1CCCCC2)C[C@H]1Cc2ccccc2[C@]12CC[C@@](Nc1cccc(Cl)c1)(C(=O)O)CC2 [Example 633, (1r,2′S,4S)-4-(3-chloroanilino)-2′-{(2R)-2-methyl-3-[(6,7,8,9-tetrahydro-5H-cyclohepta[b]pyridin-4-yl)oxy]propyl}-2′,3′-dihydrospiro[cyclohexane-1,1′-indene]-4-carboxylic acid] | 5.3 | 371 |  |
| CC(C)C(COc1ccncc1)CC1Cc2ccccc2[C@]12CC[C@@](Nc1cccc(Cl)c1)(C(=O)O)CC2 (single isomer, unassigned) [Example 533, (1r,4r)-4-(3-chloroanilino)-2′-(3-methyl-2-{[(pyridin-4-yl)oxy]methyl}butyl)-2′,3′-dihydrospiro[cyclohexane-1,1′-indene]-4-carboxylic acid] | 785 |  | 14500 |
| O=C(O)[C@]1(Nc2cccc(Cl)c2)CC[C@@]2(CC1)c1ccccc1CC2CCCOc1ncncc1C1CC1 (mixture of isomers) [Example 465, (1r,4r)-4-(3-chloroanilino)-2′-{3-[(5-cyclopropylpyrimidin-4-yl)oxy]propyl}-2′,3′-dihydrospiro[cyclohexane-1,1′-indene]-4-carboxylic acid] | 75.4 | 9600 |  |
| CC(C)C(COc1cccnc1)CC1Cc2ccccc2[C@]12CC[C@@](Nc1cccc(Cl)c1)(C(=O)O)CC2 (single isomer, unassigned) [Example 528, (1r,4r)-4-(3-chloroanilino)-2′-(3-methyl-2-{[(pyridin-3-yl)oxy]methyl}butyl)-2′,3′-dihydrospiro[cyclohexane-1,1′-indene]-4-carboxylic acid] | 3280 |  | 30000 |
| O=C(O)[C@]1(Nc2cccc(Cl)c2)CC[C@@]2(CC1)c1ccccc1CC2CCCOc1ccnc2ccccc12 (stereo partly drawn) [Example 444, (1r,4r)-4-(3-chloroanilino)-2′-{3-[(quinolin-4-yl)oxy]propyl}-2′,3′-dihydrospiro[cyclohexane-1,1′-indene]-4-carboxylic acid] | 85.2 | 5440 |  |
| C[C@H]1Cc2ccccc2[C@]12CC[C@@](Nc1cccc(Br)c1)(C(=O)O)CC2 [Example 145, (1r,2′S,4S)-4-(3-bromoanilino)-2′-methyl-2′,3′-dihydrospiro[cyclohexane-1,1′-indene]-4-carboxylic acid] | 414 | 30000 |  |
| O=C(O)[C@]1(Nc2cccc(Cl)c2)CC[C@@]2(CC1)c1ccccc1C[C@H]2c1cc2ccccc2o1 [Example 337, (1r,2′R,4R)-2′-(1-benzofuran-2-yl)-4-(3-chloroanilino)-2′,3′-dihydrospiro[cyclohexane-1,1′-indene]-4-carboxylic acid] | 247 | 30000 |  |
| CC(C)COc1ccc2c(c1)[C@]1(CC[C@@](Nc3cccc(Cl)c3)(C(=O)O)CC1)C(c1cccc(Oc3ccccc3)c1)C2 (single isomer, unassigned) [Example 385, (1r,4r)-4-(3-chloroanilino)-6′-(2-methylpropoxy)-2′-(3-phenoxyphenyl)-2′,3′-dihydrospiro[cyclohexane-1,1′-indene]-4-carboxylic acid] | 810 | 18900 |  |
| O=C(O)[C@]1(Nc2cccc(Cl)c2)CC[C@]2(CC1)C(c1cccc(OCc3ccncc3)c1)=Cc1ccccc12 [Example 362, (1s,4s)-4-(3-chloroanilino)-2′-{3-[(pyridin-4-yl)methoxy]phenyl}spiro[cyclohexane-1,1′-indene]-4-carboxylic acid] | 174 | 21600 |  |
| C[C@@H]1CCc2ncnc(OCCCC3Cc4ccccc4[C@]34CC[C@@](Nc3cccc(Cl)c3)(C(=O)O)CC4)c21 (stereo partly drawn) [Example 472, (1r,4R)-4-(3-chloroanilino)-2′-(3-{[(5R)-5-methyl-6,7-dihydro-5H-cyclopenta[d]pyrimidin-4-yl]oxy}propyl)-2′,3′-dihydrospiro[cyclohexane-1,1′-indene]-4-carboxylic acid] | 33 | 5040 |  |
| CC(C)C(COc1ccnc2ccsc12)CC1Cc2ccccc2C12CCC(Nc1cccc(Cl)c1)(C(=O)O)CC2 (stereo not drawn) [Example 525, (1r,4r)-4-(3-chloroanilino)-2′-(3-methyl-2-{[(thieno[3,2-b]pyridin-7-yl)oxy]methyl}butyl)-2′,3′-dihydrospiro[cyclohexane-1,1′-indene]-4-carboxylic acid] | 293 |  | 2490 |
| CNc1cc(OC[C@H](C)C[C@H]2Cc3ccccc3[C@]23CC[C@@](Nc2cccc(Cl)c2)(C(=O)O)CC3)ccn1 [Example 585, (1r,2′S,4S)-4-(3-chloroanilino)-2′-[(2R)-2-methyl-3-{[2-(methylamino)pyridin-4-yl]oxy}propyl]-2′,3′-dihydrospiro[cyclohexane-1,1′-indene]-4-carboxylic acid] | 36 | 2610 |  |
| O=C(O)[C@]1(Nc2cccc(Cl)c2)CC[C@]2(CC1)C(c1cccc(OCc3cccnc3)c1)=Cc1ccccc12 [Example 363, (1s,4s)-4-(3-chloroanilino)-2′-{3-[(pyridin-3-yl)methoxy]phenyl}spiro[cyclohexane-1,1′-indene]-4-carboxylic acid] | 227 | 30000 |  |
| Cc1cc2c(OCCC[C@@H]3Cc4ccccc4[C@]34CC[C@@](Nc3cccc(Cl)c3)(C(=O)O)CC4)cccc2[nH]1 [Example 481, (1r,2′R,4R)-4-(3-chloroanilino)-2′-{3-[(2-methyl-1H-indol-4-yl)oxy]propyl}-2′,3′-dihydrospiro[cyclohexane-1,1′-indene]-4-carboxylic acid] | 72.1 | 5080 |  |
| Cc1cnccc1OCCC[C@H]1Cc2ccccc2[C@]12CC[C@@](Nc1cccc(Cl)c1)(C(=O)O)CC2 [Example 449, (1r,2′S,4S)-4-(3-chloroanilino)-2′-{3-[(3-methylpyridin-4-yl)oxy]propyl}-2′,3′-dihydrospiro[cyclohexane-1,1′-indene]-4-carboxylic acid] | 80 | 9270 |  |
| Cc1cnccc1OCCC[C@@H]1Cc2ccccc2[C@]12CC[C@@](Nc1cccc(Cl)c1)(C(=O)O)CC2 [Example 448, (1r,2′R,4R)-4-(3-chloroanilino)-2′-{3-[(3-methylpyridin-4-yl)oxy]propyl}-2′,3′-dihydrospiro[cyclohexane-1,1′-indene]-4-carboxylic acid] | 65.4 | 10500 |  |
| O=C(O)[C@]1(Nc2cccc(Cl)c2)CC[C@@]2(CC1)c1ccccc1CC2CCCOc1ccncc1C(F)(F)F (stereo partly drawn) [Example 463, (1r,4r)-4-(3-chloroanilino)-2′-(3-{[3-(trifluoromethyl)pyridin-4-yl]oxy}propyl)-2′,3′-dihydrospiro[cyclohexane-1,1′-indene]-4-carboxylic acid] | 59.2 | 8230 |  |
| CC(C)C(COc1ccccc1)CC1Cc2ccccc2[C@]12CC[C@@](Nc1cccc(Cl)c1)(C(=O)O)CC2 (single isomer, unassigned) [Example 529, (1r,4r)-4-(3-chloroanilino)-2′-[3-methyl-2-(phenoxymethyl)butyl]-2′,3′-dihydrospiro[cyclohexane-1,1′-indene]-4-carboxylic acid] | 4310 |  | 25300 |
| O=C(O)[C@]1(Nc2cccc(Cl)c2)CC[C@]2(CC1)C(CCOc1ccnc(F)c1)=Cc1ccccc12 [Example 191, (1r,4r)-4-(3-chloroanilino)-2′-{2-[(2-fluoropyridin-4-yl)oxy]ethyl}spiro[cyclohexane-1,1′-indene]-4-carboxylic acid] | 69.7 | 5720 |  |
| CC(C)C(COc1ccccc1)CC1Cc2ccccc2[C@]12CC[C@@](Nc1cccc(Cl)c1)(C(=O)O)CC2 (single isomer, unassigned) [Example 531, (1r,4r)-4-(3-chloroanilino)-2′-[3-methyl-2-(phenoxymethyl)butyl]-2′,3′-dihydrospiro[cyclohexane-1,1′-indene]-4-carboxylic acid] | 5970 |  | 15900 |
| C[C@@H](COc1ccnc2c1CC(C)(C)CC2)C[C@H]1Cc2ccccc2[C@]12CC[C@@](Nc1cccc(Cl)c1)(C(=O)O)CC2 [Example 652, (1r,2′S,4S)-4-(3-chloroanilino)-2′-{(2R)-3-[(6,6-dimethyl-5,6,7,8-tetrahydroquinolin-4-yl)oxy]-2-methylpropyl}-2′,3′-dihydrospiro[cyclohexane-1,1′-indene]-4-carboxylic acid] | 20.3 | 4710 |  |
| COCCOc1ccc2c(c1)[C@]1(CC[C@@](Nc3cccc(Cl)c3)(C(=O)O)CC1)C(c1cccc(Oc3ccccc3)c1)C2 (single isomer, unassigned) [Example 384, (1r,4r)-4-(3-chloroanilino)-6′-(2-methoxyethoxy)-2′-(3-phenoxyphenyl)-2′,3′-dihydrospiro[cyclohexane-1,1′-indene]-4-carboxylic acid] | 58.8 | 11400 |  |
| CC(C)C(COc1ccnc2ccsc12)CC1Cc2ccccc2[C@]12CC[C@@](Nc1cccc(Cl)c1)(C(=O)O)CC2 (single isomer, unassigned) [Example 522, (1r,4r)-4-(3-chloroanilino)-2′-(3-methyl-2-{[(thieno[3,2-b]pyridin-7-yl)oxy]methyl}butyl)-2′,3′-dihydrospiro[cyclohexane-1,1′-indene]-4-carboxylic acid] | 6360 | 17100 |  |
| C[C@@H](COc1ccncc1)C[C@H]1Cc2ccccc2[C@]12CC[C@@](Nc1cccc(Cl)c1)(C(=O)O)CC2 [Example 582, (1r,2′S,4S)-4-(3-chloroanilino)-2′-{(2R)-2-methyl-3-[(pyridin-4-yl)oxy]propyl}-2′,3′-dihydrospiro[cyclohexane-1,1′-indene]-4-carboxylic acid] | 51.9 | 2550 |  |

Source: patent US20240150293A1, “SPIROCYCLOHEXANE DERIVATIVES, PHARMACEUTICAL COMPOSITIONS CONTAINING THEM AND THEIR USES AS ANTI-APOPTOTIC INHIBITORS” (LES LABORATOIRES SERVIER, priority 2021, published 2024)
